The record followed here is PMC7978357, “Indole-3-acetic acid is a physiological inhibitor of TORC1 in yeast” (PLoS Genetics, 2021).

Data set [1] concerns the target T1, TORC1 (Tor1 kinase subunit) (Saccharomyces cerevisiae, UniProt P35169).
T1 construct: TORC1 complex purified from yeast via Tco89-TEV-TAP (quantified with respect to the Tor1 subunit); with Kog1, Lst8, Tco89 (TORC1 subunits)
The data set is described as follows: in vitro radioactive [γ-32P]-ATP kinase assay with purified TORC1, Lst4 loop substrate; enzyme kinetics. Format: biochemical.

For data set [2], the system named is Nc1ncnc2c1ncn2[C@@H]1O[C@H](COP(=O)(O)OP(=O)(O)OP(=O)(O)O)[C@@H](O)[C@H]1O. The data set is described as follows: purified protein. The conditions noted are these: Mg2+.

T1 sequence (P35169 whole entry): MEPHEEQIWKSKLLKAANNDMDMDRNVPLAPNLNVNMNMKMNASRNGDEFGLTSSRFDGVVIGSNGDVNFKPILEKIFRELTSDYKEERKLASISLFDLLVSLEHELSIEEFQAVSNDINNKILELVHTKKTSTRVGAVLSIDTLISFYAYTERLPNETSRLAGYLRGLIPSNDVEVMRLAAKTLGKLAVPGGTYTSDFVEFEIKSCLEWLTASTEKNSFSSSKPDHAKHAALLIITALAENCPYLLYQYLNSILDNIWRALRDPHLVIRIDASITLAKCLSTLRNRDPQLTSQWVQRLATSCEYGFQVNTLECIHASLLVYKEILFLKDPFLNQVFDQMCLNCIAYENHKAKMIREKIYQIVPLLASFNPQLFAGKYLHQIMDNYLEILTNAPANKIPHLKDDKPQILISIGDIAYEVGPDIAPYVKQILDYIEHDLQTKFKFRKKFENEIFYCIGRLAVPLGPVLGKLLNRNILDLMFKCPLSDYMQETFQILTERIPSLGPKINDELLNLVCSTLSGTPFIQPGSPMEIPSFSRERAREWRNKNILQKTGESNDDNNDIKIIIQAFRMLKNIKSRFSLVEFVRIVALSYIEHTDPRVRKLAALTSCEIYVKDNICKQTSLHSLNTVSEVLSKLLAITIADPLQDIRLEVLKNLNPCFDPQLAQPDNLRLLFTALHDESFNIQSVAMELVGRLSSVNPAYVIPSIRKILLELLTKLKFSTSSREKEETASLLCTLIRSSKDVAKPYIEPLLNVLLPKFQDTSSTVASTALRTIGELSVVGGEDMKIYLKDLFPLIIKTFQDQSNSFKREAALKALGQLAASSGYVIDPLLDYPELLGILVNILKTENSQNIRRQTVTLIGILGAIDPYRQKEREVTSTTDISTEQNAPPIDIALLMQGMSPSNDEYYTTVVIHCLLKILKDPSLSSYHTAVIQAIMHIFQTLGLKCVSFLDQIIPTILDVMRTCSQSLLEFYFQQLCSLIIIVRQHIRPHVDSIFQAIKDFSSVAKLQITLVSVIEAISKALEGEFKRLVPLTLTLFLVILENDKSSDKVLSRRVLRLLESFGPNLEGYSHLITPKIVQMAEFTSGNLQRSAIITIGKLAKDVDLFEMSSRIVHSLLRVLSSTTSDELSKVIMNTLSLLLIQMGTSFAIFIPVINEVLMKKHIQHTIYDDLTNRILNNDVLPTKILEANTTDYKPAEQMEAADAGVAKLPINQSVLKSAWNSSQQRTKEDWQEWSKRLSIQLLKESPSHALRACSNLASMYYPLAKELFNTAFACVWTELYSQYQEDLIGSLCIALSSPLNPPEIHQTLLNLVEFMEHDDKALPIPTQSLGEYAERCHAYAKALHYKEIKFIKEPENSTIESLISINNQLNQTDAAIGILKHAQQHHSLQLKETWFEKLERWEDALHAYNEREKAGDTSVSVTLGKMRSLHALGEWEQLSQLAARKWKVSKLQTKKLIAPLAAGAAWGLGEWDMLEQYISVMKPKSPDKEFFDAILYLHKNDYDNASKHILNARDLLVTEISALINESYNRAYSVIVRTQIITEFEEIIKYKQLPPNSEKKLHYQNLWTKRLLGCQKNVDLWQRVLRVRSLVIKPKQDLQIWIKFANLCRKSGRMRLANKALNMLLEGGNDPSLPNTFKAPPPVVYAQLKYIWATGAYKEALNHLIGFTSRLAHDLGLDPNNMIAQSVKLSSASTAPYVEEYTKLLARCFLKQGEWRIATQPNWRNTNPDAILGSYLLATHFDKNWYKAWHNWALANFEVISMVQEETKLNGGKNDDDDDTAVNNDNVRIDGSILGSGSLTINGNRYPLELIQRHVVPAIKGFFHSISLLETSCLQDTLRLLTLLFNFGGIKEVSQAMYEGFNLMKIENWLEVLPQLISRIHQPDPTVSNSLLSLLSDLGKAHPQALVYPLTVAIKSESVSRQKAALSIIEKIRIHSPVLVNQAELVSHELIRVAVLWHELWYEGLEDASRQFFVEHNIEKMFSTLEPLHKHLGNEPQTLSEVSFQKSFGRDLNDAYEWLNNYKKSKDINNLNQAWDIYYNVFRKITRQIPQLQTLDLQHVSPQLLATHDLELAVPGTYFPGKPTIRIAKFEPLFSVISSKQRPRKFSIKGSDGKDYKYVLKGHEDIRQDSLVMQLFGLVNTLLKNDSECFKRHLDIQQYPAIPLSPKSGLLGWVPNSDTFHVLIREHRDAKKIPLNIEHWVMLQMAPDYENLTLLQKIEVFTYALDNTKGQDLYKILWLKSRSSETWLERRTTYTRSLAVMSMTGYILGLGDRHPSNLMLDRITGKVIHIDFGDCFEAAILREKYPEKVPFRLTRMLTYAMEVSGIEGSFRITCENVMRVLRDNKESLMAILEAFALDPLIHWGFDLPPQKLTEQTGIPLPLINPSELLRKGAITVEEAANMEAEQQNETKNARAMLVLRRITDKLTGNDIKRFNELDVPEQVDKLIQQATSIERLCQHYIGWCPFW
T1 sequence (P38873 whole entry partner): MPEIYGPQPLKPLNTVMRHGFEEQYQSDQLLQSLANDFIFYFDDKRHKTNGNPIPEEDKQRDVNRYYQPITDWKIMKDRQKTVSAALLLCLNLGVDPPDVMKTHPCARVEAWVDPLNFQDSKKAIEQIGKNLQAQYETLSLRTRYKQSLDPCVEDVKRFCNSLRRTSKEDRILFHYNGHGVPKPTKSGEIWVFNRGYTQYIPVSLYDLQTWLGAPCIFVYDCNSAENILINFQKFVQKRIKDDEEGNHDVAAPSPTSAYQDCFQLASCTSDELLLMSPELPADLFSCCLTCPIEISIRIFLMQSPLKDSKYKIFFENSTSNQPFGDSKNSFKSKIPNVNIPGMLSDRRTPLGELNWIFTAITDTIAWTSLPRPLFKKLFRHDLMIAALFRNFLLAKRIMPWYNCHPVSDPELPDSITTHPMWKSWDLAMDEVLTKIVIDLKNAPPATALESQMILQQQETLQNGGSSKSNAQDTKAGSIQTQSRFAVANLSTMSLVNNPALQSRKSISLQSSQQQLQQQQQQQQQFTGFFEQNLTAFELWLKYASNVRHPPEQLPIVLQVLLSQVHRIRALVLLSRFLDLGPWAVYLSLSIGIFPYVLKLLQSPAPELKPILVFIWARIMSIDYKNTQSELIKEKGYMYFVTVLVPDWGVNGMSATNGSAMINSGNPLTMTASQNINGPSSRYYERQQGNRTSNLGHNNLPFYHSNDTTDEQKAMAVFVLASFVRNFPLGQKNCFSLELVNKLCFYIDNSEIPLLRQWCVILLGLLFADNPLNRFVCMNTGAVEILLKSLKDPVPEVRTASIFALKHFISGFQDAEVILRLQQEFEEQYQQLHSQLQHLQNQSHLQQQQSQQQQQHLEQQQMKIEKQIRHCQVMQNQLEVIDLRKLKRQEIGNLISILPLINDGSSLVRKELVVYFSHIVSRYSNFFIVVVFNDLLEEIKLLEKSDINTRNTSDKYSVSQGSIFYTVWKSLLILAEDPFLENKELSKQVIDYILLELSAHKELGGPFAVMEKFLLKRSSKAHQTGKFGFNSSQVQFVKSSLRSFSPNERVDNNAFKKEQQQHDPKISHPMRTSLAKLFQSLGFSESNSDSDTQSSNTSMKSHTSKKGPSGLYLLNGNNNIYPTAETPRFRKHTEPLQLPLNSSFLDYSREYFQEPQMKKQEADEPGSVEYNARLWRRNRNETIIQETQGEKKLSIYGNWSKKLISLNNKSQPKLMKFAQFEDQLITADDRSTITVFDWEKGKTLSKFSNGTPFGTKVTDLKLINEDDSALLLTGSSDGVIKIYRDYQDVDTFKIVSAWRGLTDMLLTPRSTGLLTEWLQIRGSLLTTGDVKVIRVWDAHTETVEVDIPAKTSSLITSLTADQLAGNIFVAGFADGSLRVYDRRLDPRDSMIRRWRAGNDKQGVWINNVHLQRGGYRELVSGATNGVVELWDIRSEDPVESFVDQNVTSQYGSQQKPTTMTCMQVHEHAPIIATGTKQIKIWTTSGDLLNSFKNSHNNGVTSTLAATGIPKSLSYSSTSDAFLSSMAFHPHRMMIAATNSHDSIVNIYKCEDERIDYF
T1 sequence (P41318 whole entry partner): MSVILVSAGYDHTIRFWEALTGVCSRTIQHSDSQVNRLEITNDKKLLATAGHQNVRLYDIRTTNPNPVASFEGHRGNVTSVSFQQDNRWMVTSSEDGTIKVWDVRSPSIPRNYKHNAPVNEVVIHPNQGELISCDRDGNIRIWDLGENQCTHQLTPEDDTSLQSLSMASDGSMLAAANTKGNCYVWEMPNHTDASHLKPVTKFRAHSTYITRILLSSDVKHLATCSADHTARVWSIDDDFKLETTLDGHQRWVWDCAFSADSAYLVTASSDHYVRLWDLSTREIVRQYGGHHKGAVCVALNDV

As to `O=C(O)Cc1c[nH]c2ccccc12` [IAA, Indole-3-acetic acid], the Ki (as a rule, a measure of affinity in units of concentration, obtained from inhibition or displacement) in data set [1] is 2400 nM.

For the compound “TORC1 (Tor1 kinase subunit) (Saccharomyces cerevisiae S288C)”, in data set [2], the Km (commonly the substrate concentration at which the rate is half of its maximum) is 50.5 µM.
